For one molecule, remaining binding results are on record in PMC8799717, “Pharmacological targeting PIKfyve and tubulin as an effective treatment strategy for double-hit lymphoma” (Cell Death Discovery, 2022).

Holding throughout (assay): biochemical
Set-up in all cases: KINOMEscan active-site-directed competition binding panel, 468 kinases, percent of DMSO control at 1 uM
Details in all cases: KINOMEscan binding, percent of DMSO control; read-out: Ctrl%

For test [1], the target named is ROCK1 (Homo sapiens, UniProt Q13464).
For test [2], the target named is T1, RPS6KA5(Kin.Dom.2-C-terminal) (Homo sapiens, UniProt O75582).
T1 construct: Kin.Dom.2-C-terminal

The target of test [3] is BMX (Homo sapiens, UniProt P51813).
The target in test [4] is TSSK1B (Homo sapiens, UniProt Q9BXA7).
The target of test [5] is T2, ABL1(Q252H)-phosphorylated (Homo sapiens, UniProt P00519, Q252H).
T2 construct: phosphorylated

For test [6], the target named is T3, NIK (Homo sapiens, UniProt Q99558).
T3 construct: gene MAP3K14

Test [7] addresses KIT(V559D,T670I) (Homo sapiens, UniProt P10721, T670I/V559D).
Test [8] deals with FLT3(ITD) (Homo sapiens, UniProt P36888, ITD).
Test [9] deals with PRKD1 (Homo sapiens, UniProt Q15139).
The target in test [10] is MYO3B (Homo sapiens, UniProt Q8WXR4).
Test [11] has as its target EIF2AK1 (Homo sapiens, UniProt Q9BQI3).
The target of test [12] is EGFR(G719C) (Homo sapiens, UniProt P00533, G719C).
Test [13] deals with ULK2 (Homo sapiens, UniProt Q8IYT8).
For test [14], the target named is PRKCQ (Homo sapiens, UniProt Q04759).
Test [15] has as its target PIK3CA(Q546K) (Homo sapiens, UniProt P42336, Q546K).
The target of test [16] is T4, MINK (Homo sapiens, UniProt Q8N4C8).
T4 construct: gene MINK1

The target in test [17] is EPHB3 (Homo sapiens, UniProt P54753).
Test [18] has as its target ANKK1 (Homo sapiens, UniProt Q8NFD2).
The target in test [19] is CAMK2A (Homo sapiens, UniProt Q9UQM7).
In test [20] the target is RIPK4 (Homo sapiens, UniProt P57078).
Test [21] addresses SRPK2 (Homo sapiens, UniProt P78362).
Test [22] has as its target EPHA2 (Homo sapiens, UniProt P29317).
Test [23] deals with MARK1 (Homo sapiens, UniProt Q9P0L2).
The target of test [24] is EGFR(S752-I759del) (Homo sapiens, UniProt P00533, DEL752-759).

T1 sequence (O75582 whole entry): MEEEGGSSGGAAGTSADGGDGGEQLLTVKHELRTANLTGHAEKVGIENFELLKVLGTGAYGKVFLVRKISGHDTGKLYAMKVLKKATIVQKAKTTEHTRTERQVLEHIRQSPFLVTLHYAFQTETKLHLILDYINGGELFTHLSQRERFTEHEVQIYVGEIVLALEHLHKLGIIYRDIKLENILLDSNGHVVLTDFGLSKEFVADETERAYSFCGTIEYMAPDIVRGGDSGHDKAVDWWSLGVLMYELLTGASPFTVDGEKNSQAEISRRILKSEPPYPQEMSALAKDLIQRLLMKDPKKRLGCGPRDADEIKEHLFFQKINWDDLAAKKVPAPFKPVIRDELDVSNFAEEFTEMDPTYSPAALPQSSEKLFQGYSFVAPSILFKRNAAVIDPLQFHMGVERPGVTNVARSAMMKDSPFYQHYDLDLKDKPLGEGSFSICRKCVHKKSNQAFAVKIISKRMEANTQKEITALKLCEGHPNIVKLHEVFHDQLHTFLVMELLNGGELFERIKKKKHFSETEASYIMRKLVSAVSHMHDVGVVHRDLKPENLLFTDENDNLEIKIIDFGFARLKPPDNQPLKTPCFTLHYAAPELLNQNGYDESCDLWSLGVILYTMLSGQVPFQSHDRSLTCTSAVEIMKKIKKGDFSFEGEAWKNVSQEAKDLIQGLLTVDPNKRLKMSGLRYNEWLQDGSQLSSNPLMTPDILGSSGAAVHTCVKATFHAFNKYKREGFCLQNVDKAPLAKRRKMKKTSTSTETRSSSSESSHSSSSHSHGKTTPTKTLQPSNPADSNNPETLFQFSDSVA
Sequence of PRKCQ (Q04759 whole entry): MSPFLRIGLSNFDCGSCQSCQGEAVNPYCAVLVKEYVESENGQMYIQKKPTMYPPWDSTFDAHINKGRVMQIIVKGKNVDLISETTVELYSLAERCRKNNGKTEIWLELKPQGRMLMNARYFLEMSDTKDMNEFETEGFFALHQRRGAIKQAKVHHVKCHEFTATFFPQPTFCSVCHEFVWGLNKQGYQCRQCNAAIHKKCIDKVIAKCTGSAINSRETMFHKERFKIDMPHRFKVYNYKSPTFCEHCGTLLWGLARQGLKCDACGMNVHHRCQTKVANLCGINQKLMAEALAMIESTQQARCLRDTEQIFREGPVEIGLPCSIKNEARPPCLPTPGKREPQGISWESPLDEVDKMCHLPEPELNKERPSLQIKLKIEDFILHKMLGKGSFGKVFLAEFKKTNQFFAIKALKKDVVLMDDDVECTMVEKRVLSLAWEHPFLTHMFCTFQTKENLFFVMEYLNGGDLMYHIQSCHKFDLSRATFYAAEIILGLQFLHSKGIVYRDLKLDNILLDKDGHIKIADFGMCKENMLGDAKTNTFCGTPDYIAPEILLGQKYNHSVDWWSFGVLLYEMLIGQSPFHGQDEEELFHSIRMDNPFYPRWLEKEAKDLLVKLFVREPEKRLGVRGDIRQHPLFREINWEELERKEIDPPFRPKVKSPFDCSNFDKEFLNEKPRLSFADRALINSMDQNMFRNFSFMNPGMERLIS
Sequence of ANKK1 (Q8NFD2 whole entry): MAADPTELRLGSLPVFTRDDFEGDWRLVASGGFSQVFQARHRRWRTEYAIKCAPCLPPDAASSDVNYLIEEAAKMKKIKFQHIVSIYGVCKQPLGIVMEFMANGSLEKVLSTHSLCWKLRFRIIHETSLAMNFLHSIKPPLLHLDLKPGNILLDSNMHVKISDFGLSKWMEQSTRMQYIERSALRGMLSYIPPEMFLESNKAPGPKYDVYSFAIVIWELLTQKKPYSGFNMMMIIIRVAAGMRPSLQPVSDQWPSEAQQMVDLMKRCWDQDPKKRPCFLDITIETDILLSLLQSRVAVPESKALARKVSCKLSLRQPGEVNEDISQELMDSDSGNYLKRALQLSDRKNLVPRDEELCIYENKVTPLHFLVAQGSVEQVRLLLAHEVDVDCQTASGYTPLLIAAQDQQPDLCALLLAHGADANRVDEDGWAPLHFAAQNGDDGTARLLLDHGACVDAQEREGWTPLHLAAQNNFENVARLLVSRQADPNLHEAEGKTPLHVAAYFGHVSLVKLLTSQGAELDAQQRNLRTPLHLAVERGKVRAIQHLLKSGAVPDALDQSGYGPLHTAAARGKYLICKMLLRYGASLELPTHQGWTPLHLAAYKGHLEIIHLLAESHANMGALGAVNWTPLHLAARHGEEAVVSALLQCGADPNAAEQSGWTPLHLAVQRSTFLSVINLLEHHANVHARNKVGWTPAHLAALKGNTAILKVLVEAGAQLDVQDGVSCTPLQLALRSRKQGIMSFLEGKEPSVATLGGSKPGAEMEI
Sequence of EIF2AK1 (Q9BQI3 whole entry): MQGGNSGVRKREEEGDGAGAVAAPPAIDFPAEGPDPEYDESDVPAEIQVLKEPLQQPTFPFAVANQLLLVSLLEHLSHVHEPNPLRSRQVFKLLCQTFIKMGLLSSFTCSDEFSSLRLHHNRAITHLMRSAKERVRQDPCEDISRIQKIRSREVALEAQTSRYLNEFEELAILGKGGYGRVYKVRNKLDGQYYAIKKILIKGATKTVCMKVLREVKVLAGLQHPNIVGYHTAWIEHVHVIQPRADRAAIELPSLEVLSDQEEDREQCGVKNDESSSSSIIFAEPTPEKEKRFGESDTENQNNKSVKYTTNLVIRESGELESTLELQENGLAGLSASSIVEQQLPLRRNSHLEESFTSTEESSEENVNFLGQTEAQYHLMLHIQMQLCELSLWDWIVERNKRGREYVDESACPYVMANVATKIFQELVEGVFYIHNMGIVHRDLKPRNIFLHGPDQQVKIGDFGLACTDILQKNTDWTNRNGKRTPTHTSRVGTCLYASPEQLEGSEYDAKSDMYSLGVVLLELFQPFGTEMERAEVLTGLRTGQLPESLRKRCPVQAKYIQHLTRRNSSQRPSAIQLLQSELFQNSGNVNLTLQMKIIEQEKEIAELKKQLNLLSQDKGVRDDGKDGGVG
Sequence of ULK2 (Q8IYT8 whole entry): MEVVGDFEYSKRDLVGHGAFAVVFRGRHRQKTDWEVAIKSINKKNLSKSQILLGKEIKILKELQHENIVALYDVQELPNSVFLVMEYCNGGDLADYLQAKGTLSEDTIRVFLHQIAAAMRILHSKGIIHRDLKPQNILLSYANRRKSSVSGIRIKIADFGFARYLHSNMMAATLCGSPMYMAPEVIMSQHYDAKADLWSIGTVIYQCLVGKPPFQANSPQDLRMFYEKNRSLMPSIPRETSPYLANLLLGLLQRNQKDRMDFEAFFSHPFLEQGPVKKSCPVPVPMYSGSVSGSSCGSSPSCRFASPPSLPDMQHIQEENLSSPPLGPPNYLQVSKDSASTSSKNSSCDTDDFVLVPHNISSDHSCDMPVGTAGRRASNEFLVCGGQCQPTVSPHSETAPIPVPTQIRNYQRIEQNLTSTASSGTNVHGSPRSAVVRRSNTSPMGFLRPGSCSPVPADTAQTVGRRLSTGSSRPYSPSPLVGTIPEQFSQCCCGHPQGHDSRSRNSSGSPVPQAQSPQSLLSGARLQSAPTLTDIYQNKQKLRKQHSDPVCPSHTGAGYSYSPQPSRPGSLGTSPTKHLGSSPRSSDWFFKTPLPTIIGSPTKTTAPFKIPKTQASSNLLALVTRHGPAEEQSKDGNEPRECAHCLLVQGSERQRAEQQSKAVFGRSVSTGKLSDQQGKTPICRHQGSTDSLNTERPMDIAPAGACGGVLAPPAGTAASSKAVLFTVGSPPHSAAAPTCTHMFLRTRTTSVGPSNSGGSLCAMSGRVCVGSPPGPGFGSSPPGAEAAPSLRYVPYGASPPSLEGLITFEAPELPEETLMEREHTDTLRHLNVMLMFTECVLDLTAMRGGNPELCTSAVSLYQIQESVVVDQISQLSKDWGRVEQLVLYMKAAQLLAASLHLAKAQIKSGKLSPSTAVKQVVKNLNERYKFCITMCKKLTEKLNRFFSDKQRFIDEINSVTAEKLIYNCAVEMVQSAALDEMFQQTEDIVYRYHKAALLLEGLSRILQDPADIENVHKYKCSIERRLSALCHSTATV
Sequence of PIK3CA(Q546K) (P42336 whole entry Q546K): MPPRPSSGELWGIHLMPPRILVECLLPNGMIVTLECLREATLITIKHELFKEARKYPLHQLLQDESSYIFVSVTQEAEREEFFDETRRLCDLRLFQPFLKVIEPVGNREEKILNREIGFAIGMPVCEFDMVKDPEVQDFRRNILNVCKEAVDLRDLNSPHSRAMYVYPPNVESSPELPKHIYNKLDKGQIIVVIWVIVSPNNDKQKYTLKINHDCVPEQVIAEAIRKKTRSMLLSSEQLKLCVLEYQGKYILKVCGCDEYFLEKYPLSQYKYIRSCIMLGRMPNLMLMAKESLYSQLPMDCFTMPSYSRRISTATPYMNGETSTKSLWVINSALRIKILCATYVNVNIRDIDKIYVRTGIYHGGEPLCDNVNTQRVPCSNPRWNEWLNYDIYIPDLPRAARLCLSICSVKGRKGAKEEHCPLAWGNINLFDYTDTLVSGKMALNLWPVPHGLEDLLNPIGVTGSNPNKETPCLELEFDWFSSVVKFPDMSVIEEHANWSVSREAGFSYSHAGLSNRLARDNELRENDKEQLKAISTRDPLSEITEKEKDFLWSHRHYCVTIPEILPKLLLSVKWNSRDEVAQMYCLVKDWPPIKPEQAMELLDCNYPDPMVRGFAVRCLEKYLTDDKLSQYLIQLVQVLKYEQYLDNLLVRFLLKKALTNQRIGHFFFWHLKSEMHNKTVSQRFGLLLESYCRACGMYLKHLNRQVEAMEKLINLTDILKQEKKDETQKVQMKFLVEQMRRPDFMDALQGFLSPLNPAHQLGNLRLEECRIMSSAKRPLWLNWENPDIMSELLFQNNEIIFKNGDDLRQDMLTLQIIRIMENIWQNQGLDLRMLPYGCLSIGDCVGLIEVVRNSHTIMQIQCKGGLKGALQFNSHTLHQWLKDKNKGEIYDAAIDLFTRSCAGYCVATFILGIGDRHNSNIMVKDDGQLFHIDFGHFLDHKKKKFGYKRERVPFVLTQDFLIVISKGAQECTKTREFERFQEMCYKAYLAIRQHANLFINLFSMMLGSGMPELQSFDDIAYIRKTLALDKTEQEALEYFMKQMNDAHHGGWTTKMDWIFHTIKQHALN

As to `Cc1ccc(NC(=O)c2cccc(C(F)(F)F)c2)cc1Nc1cc(-c2cccnc2)nc2[nH]ccc12` [HZX-02-059], the remaining binding at 1 µM in test [1] worked out at 100%; in test [2] it was 99%; in test [3] it was 80%; in test [4], 100%; in [5], 61%; in test [6], 61%. Besides, the remaining binding at 1 µM in test [7] came to 80%; in test [8] it was 79%; in test [9] it was 96%; in test [10], 97%; in test [11] it was 79%; in test [12], 96%. Besides, the remaining binding at 1 µM in [13] is 99%; in [14], 88%; in test [15] it was 66%; in test [16], 91%; in [17] it was 48%; in test [18], 99%. The remaining binding at 1 µM in test [19] was found to be 98%; in test [20], 75%; in test [21], 83%; in test [22] it was 4%; in [23], 94%; in test [24], 100%.
